The nature of this data set: Human HepG2 cell viability assay in 384 well format. The format is toxicity, cell-based. To be noted: HepG2 cells, read-out: Inhibition. More on the design: dose 125 nL, time 70.5 hour; concentration not given beside the values.
As for `CCc1nc(C)c([C@H]2CN(C)C[C@@H]2C(=O)NCc2ccccn2)[nH]1`, the cytotoxicity at 70.5 h is -2.64%.
To `COc1ccc(-n2cccn2)c(CN2CCC3(CCCNC3)C2)c1` (stereo not drawn) belongs -7.03%; to `Cc1cc(Cn2cc(C(C)Cc3ccc4c(c3)OCO4)nn2)n[nH]1` (stereo not drawn), -7.62%; to `COc1nc2c(cc1C(=O)N1CCCCC1c1ccccn1)CCC2` (stereo not drawn), -6.36%.
`Cc1cc(NCc2nnc3n2CCC3)n2nc(C)c(C)c2n1`: the cytotoxicity at 70.5 h is -12.3%.
As for `O=C(NCCN1CCOC1=O)c1cnc(-c2cccnc2)nc1`, the cytotoxicity at 70.5 h was -3.86%.
Take `CC1=C(C(=O)N(C)Cc2noc3c2CCCC3)C(C)NC(=O)N1` (stereo not drawn): the cytotoxicity at 70.5 h is -0.0225%.
To `c1cc(-c2cscn2)cc(N2CCC(NCCc3cccs3)CC2)c1` belongs 0.55%; to `COc1cc(F)c(-n2cnc(CCNC(C)=O)c2)cc1F`, -10.8%; to `O=C1CN(Cc2cn(CC3CCN(C4CCSCC4)CC3)nn2)CCN1`, 20.3%.
Take `CCC1CN(Cc2nnc(C3CC3)o2)CCC(=O)N1Cc1ccccc1` (stereo not drawn): the cytotoxicity at 70.5 h is 20.4%.
Take `Cc1ccc(CN(CCN(C)C)Cc2nc3ccccc3[nH]2)s1`: the cytotoxicity at 70.5 h turned out to be 11.2%.
To `COCCC1(CO)CCCN(Cc2ccc(C#N)cc2)C1` (stereo not drawn) belongs -1.95%; to `CSCCCN1C[C@H](NC(=O)c2ccc(C#N)nc2)[C@@H](C2CC2)C1`, -0.265%.
As to `CCc1nc(NC(=O)NCCc2cscn2)nn1C`, the cytotoxicity at 70.5 h is -4.65%.
To `NC(=O)c1ccc(-c2nc3c(c(=O)[nH]2)CCNC3)cc1` belongs -2.1%; to `Cc1noc(C)c1CN1C(=O)[C@H]2CC[C@@H]1CN(Cc1cscn1)C2`, -6.64%.
Regarding `O=C(NCc1cc2n(n1)CCCN(Cc1ccc(Cl)s1)C2)C1CCC1`, the cytotoxicity at 70.5 h is -10.1%.
As for `CC(C)c1cc(C2CCCN2C(=O)CN2C(=O)OC(C)(C)C2=O)no1` (stereo not drawn), the cytotoxicity at 70.5 h was -9.43%.
On to `c1ccc(CCCN2CCCN(c3ncnc4[nH]ccc34)CC2)cc1`, for which the cytotoxicity at 70.5 h was -15.3%.
For the molecule `O=S(=O)(NCc1ccccc1)N1CCCN(c2ccncc2)CC1`, the cytotoxicity at 70.5 h was determined as 28.7%.
`CCC(C)Oc1ccc(CNCCc2c[nH]cn2)cc1Cl` (stereo not drawn): the cytotoxicity at 70.5 h was determined as 24.1%.
With `Cc1nn(C)c2nc(N(CCOc3ccccc3)CC3CCCO3)sc12` (stereo not drawn), the cytotoxicity at 70.5 h was 21%.
As to `O=C(CCc1ccco1)N1CCc2[nH]nc(COc3ccccc3)c2C1`, the cytotoxicity at 70.5 h was found to be 51.5%.
For `CCc1ncc(C(=O)NCC2CCN(Cc3ccncc3)CC2)cn1`, the cytotoxicity at 70.5 h is -5.64%.
To `CN(C)c1ncnc2c1CCN(C(=O)CN1CCCCC1)C2` belongs -7.37%; to `CC(C)CNS(=O)(=O)c1ccc(C(=O)N(C)CCc2cn[nH]c2)cc1`, -8.39%.
As to `CN(CC1(CO)CCC1)C(=O)c1cc(COc2ccccc2F)[nH]n1`, the cytotoxicity at 70.5 h is -3.92%.
In the case of `CN(C)C(C(=O)N1CCN(S(N)(=O)=O)CC1)c1ccccc1F` (stereo not drawn), the cytotoxicity at 70.5 h was -3.36%.
Consider `O=C1CCC2(CCNCC2)CN1CCCNc1cccnc1`, for which the cytotoxicity at 70.5 h is -0.123%.
On to `CCCn1cc(C(=O)NCCc2ccncc2)c(C)n1`, for which the cytotoxicity at 70.5 h was -6.81%.
For `COc1c(F)cc(CN2CCCC3(CC2)CNC(=O)O3)cc1Cl` (stereo not drawn), the cytotoxicity at 70.5 h turned out to be 5.1%.
The figure for `OCC(CO)N1CCC(c2nnc(Cn3ccnc3)n2C2CC2)CC1` is 12.4%; for `Cc1ccc(CN2CCN(c3ncnc4[nH]cnc34)CC2CCO)cc1` (stereo not drawn) it is 4.25%.
To `Cc1noc(C)c1CN1CCCC1c1nc(-c2ccccc2)no1` (stereo not drawn) belongs -2.38%; to `Cc1ccc(C)c2c(O)cc(CNCC(N)=O)nc12`, -0.585%.
Consider `c1cn(CC2CC2)c(C2CCN(CCC3CCOC3)CC2)n1` (stereo not drawn), for which the cytotoxicity at 70.5 h came out at 21.7%.
Consider `CN(C(=O)c1cccnc1)C1CCCN(CCc2ccccc2)C1` (stereo not drawn), for which the cytotoxicity at 70.5 h is -5.02%.
The figure for `CC(Oc1ccc2c(c1)OCO2)C(=O)N1CCC(N2CCOCC2)CC1` (stereo not drawn) is -2.72%; for `Cc1ccccc1C(=O)NC[C@@H]1CCN(C(=O)c2cccn2C)C[C@H]1O` it is -13%.
To `CCn1ccc(C(=O)N2CCCN(Cc3ccccc3F)CC2)cc1=O` belongs 17.5%; to `CCCn1ncc(C(=O)N(C)Cc2n[nH]c3c2CCC3)c1C`, -11.7%; to `CCC[C@H]1CN(Cc2cncn2C)C[C@@H]1NC(=O)C1(COC)CCC1`, -9.83%.
Regarding `O=C(Cc1cccnc1)N1C[C@H]2CC[C@@H]1CN(Cc1ccc(F)cc1)C2`, the cytotoxicity at 70.5 h was determined as 9.62%.
Take `COc1ccccc1OC1CCN(Cc2cccnc2)CC1`: the cytotoxicity at 70.5 h is -3.86%.
`Cc1cc(C)c2c(C(=O)N(C)C)cc(-c3cnc(N)nc3)nc2c1`: the cytotoxicity at 70.5 h is -5.25%.
In the case of `CN(C)c1ccc(CN2C[C@H]3CC[C@@H]2CN(C2CCOCC2)C3)cn1`, the cytotoxicity at 70.5 h was -3.42%.
To `c1ccc(Cn2cccn2)c(CN2CCCCC2CCn2ccnc2)c1` (stereo not drawn) belongs 0.54%; to `CC(C)(C)NC(=O)N1CCCn2nc(C(=O)Nc3ccccc3)cc2C1`, -12.5%.
The figure for `Cc1cc(C(=O)N2CC[C@@]3(O)CCN(C(=O)N4CCCC4)C[C@H]3C2)no1` is -4%; for `COc1cccc(-c2noc(-c3ccc(N4CC(N)C4)nc3)n2)c1OC` it is -0.582%; for `CN(C)CC1(O)CCCN(C(=O)Cn2ccc3ccccc32)CC1` (stereo not drawn) it is 29.7%.
With `CCC(CO)N(C/C(C)=C/c1ccco1)Cc1ccco1` (stereo not drawn), the cytotoxicity at 70.5 h is -3.88%.
For `CN(C)CC1(O)CCCN(C(=O)c2ccccc2-n2cccn2)C1` (stereo not drawn), the cytotoxicity at 70.5 h was determined as 17.7%.
For the molecule `CCC(Nc1nccc(C2CCCC2)n1)c1ncccc1C` (stereo not drawn), the cytotoxicity at 70.5 h is 14.1%.
Turning to `CCn1cc(CN2CCC(CNC(C)=O)CC2)cc1C#N`, the cytotoxicity at 70.5 h turned out to be 0.676%.
To `CC(C)N1CC2(CCCN(c3ncc(Cl)cc3F)C2)CCC1=O` (stereo not drawn) belongs -4.82%; to `CC(=O)N[C@@H]1CN(Cc2cccs2)C[C@H]1c1ccc(C)o1`, 1.3%; to `Cc1nc(CN2CCCC(CCc3ccccc3C(F)(F)F)C2)no1` (stereo not drawn), -8.94%.
Take `CN(C)c1nc(NCc2cccnc2N)ncc1F`: the cytotoxicity at 70.5 h was found to be 0.515%.
For the molecule `CC(C)CN1CCn2nc(CNc3ncnc4[nH]ccc34)cc2C1`, the cytotoxicity at 70.5 h was determined as 7.26%.
For the molecule `Cc1ccccc1C(C(=O)NCCn1cccc1)N(C)C` (stereo not drawn), the cytotoxicity at 70.5 h is -9.04%.
The figure for `CC(C)N1CCCCC1CCn1cnc2cc(C(F)(F)F)ccc2c1=O` (stereo not drawn) is -12.9%; for `CCCN(Cc1ccc(OC)nc1)Cc1ccccc1OC` it is 12.5%; for `CN(C)C(=O)CCC1CCCN(Cc2ccc(-c3cccnc3)cc2)C1` (stereo not drawn) it is -10.4%.
On to `O=C(Nc1cccc2c1CCCC2)c1cccc(CN2CC[C@H](O)C2)c1`, for which the cytotoxicity at 70.5 h was -4.36%.
Regarding `OC1(CN2CCCC2)CCCN(Cc2c[nH]c(CC3CCCC3)n2)C1` (stereo not drawn), the cytotoxicity at 70.5 h was -4.13%.
`Cc1n[nH]c(C)c1CCC(=O)N(C)Cc1cn[nH]c1-c1ccc(F)cc1`: the cytotoxicity at 70.5 h is 5.04%.
Turning to `CCC(C)CN1CCC(n2cc(C3CCCCC3)nn2)CC1` (stereo not drawn), the cytotoxicity at 70.5 h stood at 14.7%.
In the case of `FC(F)(F)c1ccc(-n2ccnc2-c2cc3n(n2)CCNC3)cn1`, the cytotoxicity at 70.5 h came out at 12.7%.
Take `Cc1noc(CN(C)C(=O)c2n[nH]c(N)c2-c2ccccc2)n1`: the cytotoxicity at 70.5 h worked out at 2.44%.
On to `Cc1nccn1-c1ccc(N2CCC(NC(C)C(C)C)CC2)cc1` (stereo not drawn), for which the cytotoxicity at 70.5 h is -2%.
As to `Cc1cc(C(F)(F)F)cc(=O)n1CCCn1cnnn1`, the cytotoxicity at 70.5 h was -11.2%.
Take `CCc1ccc(CN(C/C=C/c2ccccc2)CCOC)nc1`: the cytotoxicity at 70.5 h was -2.77%.
For the molecule `COC[C@H]1CCC[C@H]1Nc1ncnc2c1CCNCC2`, the cytotoxicity at 70.5 h was -3.38%.
With `O=C(CSCC1CC1)N1CCCN(Cc2ccc(F)cc2)CC1`, the cytotoxicity at 70.5 h was -11.1%.
As for `CC(C)Cn1c(=O)n(CCn2cc(Cl)cn2)c2cc(C(=O)O)cnc21`, the cytotoxicity at 70.5 h is -7.3%.
For `CCn1cnnc1CN(C)Cc1c[nH]nc1-c1ccc(F)cc1`, the cytotoxicity at 70.5 h is -1.22%.
For the molecule `CC(C)Cc1nc(CO)n(-c2ccc3c(c2)OCCO3)n1`, the cytotoxicity at 70.5 h is 1.83%.
Turning to `CC(NC(=O)c1cc2n(n1)CCCN(C(C)C)C2)c1cn2ccsc2n1` (stereo not drawn), the cytotoxicity at 70.5 h was -16.5%.
To `CC(C)SCC(=O)NCc1cc2n(n1)CCCN(C1CCCCC1)C2` belongs 25.3%; to `CN(CC(=O)N1CCOCC(CO)C1)Cc1ccccn1` (stereo not drawn), -12.5%; to `CCc1nc2c(c(NC3CC3)n1)CCN(C(=O)Cc1nonc1C)CC2`, -8.76%.
With `Cn1ccnc1-c1ccc(NCCC2COc3ccccc3O2)nn1` (stereo not drawn), the cytotoxicity at 70.5 h was -4.08%.
Regarding `CSCC(=O)N1CCCC(CCC(=O)N(C)CCc2ccccn2)C1` (stereo not drawn), the cytotoxicity at 70.5 h is 9.62%.
For `CCc1nnc(CN(CC)C(=O)CCc2scnc2C)o1`, the cytotoxicity at 70.5 h is -2.72%.
Regarding `COc1ccc2c(c1)OCC(Cc1ccc(C)nc1N)C2` (stereo not drawn), the cytotoxicity at 70.5 h was found to be 13.9%.
`CN(Cc1ncc[nH]1)CC1CCOc2ccccc2C1` (stereo not drawn): the cytotoxicity at 70.5 h was determined as 2.48%.
Regarding `COc1ccc(F)c(CN2CCCC(O)(CNCc3ncc[nH]3)C2=O)c1` (stereo not drawn), the cytotoxicity at 70.5 h is -5.99%.
On to `c1ccc(COC2CCN(Cc3cc4n(n3)CCCNC4)CC2)nc1`, for which the cytotoxicity at 70.5 h is -18%.
As to `CCc1oc(C(=O)NCCc2nc(C(=O)O)cs2)cc1CN1CCCC1`, the cytotoxicity at 70.5 h is -3.56%.
As for `Cc1ccc(C#N)c(N2CC(C)(C)[C@@](C)(O)C2)n1`, the cytotoxicity at 70.5 h is -6.73%.
On to `COCCN(C)C[C@@H]1CN(C(=O)c2ccc(=O)n(C)c2)C[C@@H]1CO`, for which the cytotoxicity at 70.5 h was -3.56%.
`O=S(=O)(NCc1ccccc1)N(Cc1ccccn1)CC1CCCO1` (stereo not drawn): the cytotoxicity at 70.5 h is -2.95%.
Take `Cc1n[nH]c(C)c1CC(=O)N1CCCN(C)C2(CCN(C)CC2)C1`: the cytotoxicity at 70.5 h was 23.3%.
As for `Cc1n[nH]c(C)c1Sc1ccccc1NC(=O)N1CCOCC1`, the cytotoxicity at 70.5 h was -2.37%.
For the molecule `CCn1c(N)nc2cc(C(=O)N3CC(c4ccccn4)C3)cnc21`, the cytotoxicity at 70.5 h is -5.92%.
As for `COc1cc(NCc2ccccc2-n2cncn2)nc(N)n1`, the cytotoxicity at 70.5 h is -6.05%.

(Values after ChEMBL document CHEMBL3507680, “University of Dundee, Gates Library screen for HepG2 cell viability”.)
